The results in this text go back to patent US8362023B2, “Pyrazolo pyrimidines” (Hoffmann-La Roche Inc., priority 2011, dated 2013).

Where a name gives a salt, the structure may show the parent alone. Some results are limits rather than exact numbers.

For assay [1], the target named is T1, Human DYRK1B (Homo sapiens, UniProt Q9Y463).
T1 construct: purchased Invitrogen PR8350B (former PV4649)
In words: DYRK1B Kinase TR-FRET (IMAP-Tb) Assay. Particulars: TR-FRET (IMAP-Tb); ATP 70 μM; 37° C. for 60 minutes; averages of multiple runs; read-out: Enzyme IC50 (μM) DYRK1B. The format is biochemical.

The target of assay [2] is T2, Human DYRK1A (Homo sapiens, UniProt Q13627).
T2 construct: purchased Invitrogen PV3997
In words: DYRK1A Kinase TR-FRET (IMAP-Tb) Assay. Particulars: TR-FRET (IMAP-Tb); ATP 70 μM; 37° C. for 60 minutes; averages of multiple runs; read-out: Enzyme IC50 (μM) DYRK1A. The format is biochemical. In short, it runs like this:
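Human DYRK1A phosphorylates a fluorescent substrate peptide (1.0 μM) in HEPES pH 7.0 buffer with Mg2+, DTT and vanadate for 60 min at 37 °C. The phosphopeptide is captured by IMAP beads carrying a Tb tracer, and the TR-FRET signal is read at 340 nm excitation. IC50 reflects inhibition of substrate phosphorylation.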

The subject of assay [3] is SW620 human colon cancer cells. In words: SW620 Cell Viability Assay. The format is cell-based. The note with it: SW-620, 96 h, CellTiter-Glo Luminescent Cell Viability Assay, 4 days incubation, read-out: Cellular EC50 (μM) SW620. The protocol: SW620 Cell Viability Assay
1. Cell Plate Preparation: SW620 human colon cancer cells (known to express DYRK1B), obtained from ATCC, were seeded into 96-well plates at 3×10^3 cells/well in 50 μL of media. • Harvested the required number of cells (counts & viability determined by Guava Viacount). • Centrifuge cells to pellet and removed supernant. • Resuspended in growth media (50 μL/well) & pipetted thoroughly to break up clumps. • Setup for ˜100 wells/plate, therefore, VT=5 mL/plate @ […].
1A. Some cells (S—) were allowed to attach for 24 hrs, serum starved for 48 hrs, and then followed with test compound treatments.
Test compound solution were prepared in regular corresponding media supplemented with serum.
2. Test compound Preparation: Drugs were solubilized in either DMSO or media and prepared at various stock concentrations. • All compounds were incubated at 37° C. for 30 minutes and vortexed. • (5 mM stocks of test compound were prepared for non-soluble test compounds)
3. Test compound Plate Preparation: • The 10 mM test compound stock was diluted to a concentration of 100× the final Cmax concentration. • Then the test compound stock is diluted 50-fold in media and/or second test compound for a final Cmax concentration in the test compound plate. • The Cmax in the test compound plate (2% DMSO) is 2-fold higher than the final Cmax in the cell plate (60 μl, titrations were 1:3).
4. Viability Assay: This assay was performed as follows: • Transfer 50 μL of test compound solution per well from the test compound plate onto the cell plate prepared in Step #1. • Mix the plate with treated cells by pipetting up and down three times with 200 μL multi-channel pipette. • Incubate the cells in 5% CO2 incubator @ 37° C. for 4 days. • Run the CellTiter-Glo™ Luminescent Cell Viability Assay.
The results of this assay, given as EC50 values, indicate the concentration of test compound that inhibits tumor cell proliferation by 50%.

T1 sequence (Q9Y463 whole entry): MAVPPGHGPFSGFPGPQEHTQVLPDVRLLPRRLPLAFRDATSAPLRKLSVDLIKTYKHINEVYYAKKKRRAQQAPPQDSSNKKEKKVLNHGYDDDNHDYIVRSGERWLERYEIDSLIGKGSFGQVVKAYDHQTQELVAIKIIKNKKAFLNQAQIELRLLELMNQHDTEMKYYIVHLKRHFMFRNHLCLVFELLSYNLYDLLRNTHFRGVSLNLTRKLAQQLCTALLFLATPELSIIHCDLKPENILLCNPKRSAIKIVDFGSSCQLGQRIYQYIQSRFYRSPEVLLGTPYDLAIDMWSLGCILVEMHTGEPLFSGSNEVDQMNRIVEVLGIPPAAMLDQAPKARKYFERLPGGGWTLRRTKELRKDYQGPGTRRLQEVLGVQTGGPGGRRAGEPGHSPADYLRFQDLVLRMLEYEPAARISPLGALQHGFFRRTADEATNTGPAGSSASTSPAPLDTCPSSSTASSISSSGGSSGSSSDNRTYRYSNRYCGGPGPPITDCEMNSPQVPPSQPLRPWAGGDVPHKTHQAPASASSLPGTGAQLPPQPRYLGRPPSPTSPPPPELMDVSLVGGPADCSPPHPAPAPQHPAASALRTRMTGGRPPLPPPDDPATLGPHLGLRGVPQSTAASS

`NCC(Nc1nccc(-c2n[nH]c3nc(NCCN4CCOCC4)ncc23)n1)c1cccc(Cl)c1` (stereo not drawn) [Example 76, 1-(3-Chloro-phenyl)-N1-{4-[6-(2-morpholin-4-yl-ethylamino)-1H-pyrazolo[3,4-d]pyrimidin-3-yl]-pyrimidin-2-yl}-ethane-1,2-diamine; hydrochloride]: the IC50 in assay [1] was 0.0121 µM; in assay [2], 0.0076 µM. Also, in assay [3], the EC50 turned out to be 0.14 µM.
Regarding `NCCC(Nc1cccc(-c2n[nH]c3nc(N[C@H]4CC[C@H](N)CC4)ncc23)n1)c1ccccc1` (stereo partly drawn) [Example 69, N-{3-[6-(3-Amino-1-phenyl-propylamino)-pyridin-2-yl]-1H-pyrazolo[3,4-d]pyrimidin-6-yl}-cyclohexane-1,4-diamine; hydrochloride], the IC50 was found to be 0.197 µM in assay [1] and 0.231 µM in assay [2]. The EC50 in assay [3] was 0.001 µM.
On the same counts, the results for `N[C@H]1CC[C@H](Nc2ncc3c(-c4ccnc(NCc5ccc(Cl)cc5)n4)n[nH]c3n2)CC1` [Example 72, N-{3-[2-(4-Chloro-benzylamino)-pyrimidin-4-yl]-1H-pyrazolo[3,4-d]pyrimidin-6-yl}-cyclohexane-1,4-diamine; hydrochloride] are 0.009 µM, 0.013 µM and 0.056 µM.
`N[C@H]1CC[C@H](Nc2ncc3c(-c4cccc(NCc5ccccc5)c4)n[nH]c3n2)CC1` [Example 52, N-[3-(3-Benzylamino-phenyl)-1H-pyrazolo[3,4-d]pyrimidin-6-yl]-cyclohexane-1,4-diamine]: the IC50 amounted to 0.241 µM in assay [1] and 0.594 µM in assay [2]. Further, in assay [3], the EC50 is 0.923 µM.
Consider `N[C@H]1CC[C@H](Nc2ncc3c(-c4cccc(NCc5cccs5)c4)n[nH]c3n2)CC1` [Example 53, N-(3-{3-[(Thiophen-2-ylmethyl)-amino]-phenyl}-1H-pyrazolo[3,4-d]pyrimidin-6-yl)-cyclohexane-1,4-diamine], for which the IC50 in assay [1] is 0.183 µM; in assay [2], 0.405 µM. Besides, in assay [3], the EC50 was determined as 1.84 µM.
For `NCCC(Nc1nccc(-c2n[nH]c3nc(N[C@H]4CC[C@H](N)CC4)ncc23)n1)c1cccc(Cl)c1` (stereo partly drawn) [Example 80, N-(3-{2-[3-Amino-1-(3-chloro-phenyl)-propylamino]-pyrimidin-4-yl}-1H-pyrazolo[3,4-d]pyrimidin-6-yl)-cyclohexane-1,4-diamine; hydrochloride], the IC50 in assay [1] was under 0.0046 µM; in assay [2], 0.0046 µM. Also, in assay [3], the EC50 worked out at 0.89 µM.
Consider `NCCC(Nc1nccc(-c2n[nH]c3nc(NCCN4CCOCC4)ncc23)n1)c1ccccc1` (stereo not drawn) [Example 81, N1-{4-[6-(2-Morpholin-4-yl-ethylamino)-1H-pyrazolo[3,4-d]pyrimidin-3-yl]-pyrimidin-2-yl}-1-phenyl-propane-1,3-diamine; hydrochloride], for which the IC50 worked out at 0.0944 µM in assay [1] and 0.112 µM in assay [2]. The EC50 in assay [3] came to 1.75 µM.
In the case of `Clc1ccccc1CNc1cccc(-c2n[nH]c3nc(NCCN4CCOCC4)ncc23)n1` [Example 59, {3-[6-(2-Chloro-benzylamino)-pyridin-2-yl]-1H-pyrazolo[3,4-d]pyrimidin-6-yl}-(2-morpholin-4-yl-ethyl)-amine], the results for the IC50 in assay [1] and in assay [2] were 0.924 µM and 0.663 µM, respectively. The EC50 in assay [3] was over 10 µM.
With `N[C@H]1CC[C@H](Nc2ncc3c(-c4ccnc(NCc5ccsc5)n4)n[nH]c3n2)CC1` [Example 66, N-(3-{2-[(Thiophen-3-ylmethyl)-amino]-pyrimidin-4-yl}-1H-pyrazolo[3,4-d]pyrimidin-6-yl)-cyclohexane-1,4-diamine; hydrochloride], the IC50 in assay [1] was 0.0172 µM; in assay [2], 0.0148 µM. For the same molecule, the EC50 in assay [3] is 0.04 µM.
The like results for `NCCC(Nc1cccc(-c2n[nH]c3nc(N[C@H]4CC[C@H](N)CC4)ncc23)c1)c1ccccc1` (stereo partly drawn) [Example 79, N-{3-[3-(3-Amino-1-phenyl-propylamino)-phenyl]-1H-pyrazolo[3,4-d]pyrimidin-6-yl}-cyclohexane-1,4-diamine; hydrochloride] were, in that order, 0.601 µM, 1.11 µM and over 10 µM.
The like results for `N[C@H]1CC[C@H](Nc2ncc3c(-c4ccnc(NCc5cccc(Cl)c5)n4)n[nH]c3n2)CC1` [Example 71, N-{3-[2-(3-Chloro-benzylamino)-pyrimidin-4-yl]-1H-pyrazolo[3,4-d]pyrimidin-6-yl}-cyclohexane-1,4-diamine; hydrochloride] were, in that order, 0.006 µM, 0.0046 µM and 0.027 µM.
